Tests used:
starfish = conditions: injection of 1-MeAde compared with RGP; cited from earlier work
Source text: (§1) Although RGP is the primary mediator of oocyte maturation and ovulation, the effect of RGP is indirect. RGP secreted by radial nerve cords induces ovarian follicle cells to produce 1-methyladenine (1-MeAde) as a maturation-inducing hor ...

[1] = tested on: Patiria pectinifera ovarian follicle cells; assay: Intracellular cAMP production in follicle cells; type: cell-based; conditions: follicle cells (ten million in 1 ml ASW), 2 h at 20°C; intracellular cAMP by EIA; three independent samples
Procedure: (§2) Ten million follicle cells were incubated for 2 h at 20°C in 1 ml of ASW in the presence of PpeRGP or AamRGP, with occasional shaking. The cell suspension was then centrifuged at 1,000 g for 1 min and quickly frozen in liquid nitrogen. Supernatants were analyzed for the amount of 1-MeAde released from follicle cells. The concentration of 1-MeAde was determined by a method previously described, using authentic 1-MeAde as the standard reference. The frozen follicle cells were analyzed for the amount of intracellular cAMP using a BIOTRAK cAMP EIA system (GE Healthcare). The mean was determined from three separate assays using three different animals and standard error of the mean (SEM).
(§3) Fig 4 Effect of RGP on 1-MeAde and cAMP production in Patiria pectinifera ovarian follicle cells. (A) Amino acid alignments of A- and B-chains in P. pectinifera (PpeRGP) and Asterias amurensis (AamRGP). To illustrate the conserved features, the amino acid types are color coded according to their properties, with basic residues in blue (Arg, Lys and His), acidic residues in red (Glu and Asp), hydrophobic residues in green (Ala, Val, Ile, Phe, Trp, Tyr, Pro and Met), hydrophilic in black (Ser, Thr, Asn and Gln) and glycine in light blue. The cysteine residues are highlighted in yellow and disulfide bonds are shown with solid dark red lines. […] Intracellular cAMP content was determined by EIA. […]

PpeRGPR = assay: Intracellular calcium mobilization (Fluo-8) in Sf9 cells transfected with Gαq16-fused PpeRGPR; type: cell-based, Patiria pectinifera; conditions: for Effect on calcium signaling (result in words): Fluo-8, 490/514 nm
Procedure: Functional characterization of PpeRGPR was performed using Sf9 cells and baculovirus-based expression methods, as previously reported. The open reading frame (ORF) of human Gαq16 protein (OriGene, Rockville, MD, USA), which couples with GPCRs and triggers intracellular calcium mobilization upon binding of a specific ligand [33] was subcloned into the XbaI site of the pFastbacI plasmid (Invitrogen, Waltham, MA, USA). PpeRGPR was then cloned into the NotI/XbaI site of the Gαq16-ligated pFastbacI plasmids. Transformation of competent cells with the PpeRGPR-Gαq16-pFastbacI plasmid and the resulting bacmid isolation was performed according to the manufacturer’s instructions for the Bac-to-Bac system (Thermo Fisher Scientific, Waltham, MA, USA).
Sf9 cells (Thermo Fisher Scientific) were grown in Sf900 II (Thermo Fisher Scientific) containing 10% FBS (Sigma-Aldrich) at 28°C. PpeRGPR-Gαq16-recombinant baculoviruses were prepared from Sf9 cells transfected with the above bacmids using Cellfectin II (Thermo Fisher Scientific), titrated, isolated, and transiently transfected into Sf9 cells, as previously described. Sf9 cells were plated at 1.2×10^5 cells/well (on a 96-well plate) or 2.4×10^5 cells (on a glass bottom dish) prior to transfection. Forty-eight hours after transfection, Sf9 cells were loaded for 30 min with 2.5 μM of Fluo-8 AM (AAT Bioquest, Sunnyvale, CA, USA) diluted in loading buffer [HBSS supplemented with 1.25 mM probenecid and 0.04% (wt/vol) pluronic F-127] [32]. Cell membrane expression of PpeRGPR-fused human Gαq16 was confirmed by immunostaining using the anti-Gαq16 antibody (OriGene, TA318890) in comparison with non-transfected Sf9 cells (wild type). Dose-dependent responses to PpeRGP or AamRGP were measured using a FlexStation II-automated apparatus (Molecular Devices, San Jose, CA, USA) at the excitation/emission wavelengths of 490/514 nm. Calcium accumulation data were analyzed using Prism v6 (GraphPad Software, San Diego, CA, USA) to fit to a sigmoidal concentration-response curve, as previously described. The dose-response curve was statistically evaluated by analysis of variance. Significant activation of PpeRPGR by PpeRGP compared with AamRGP at each concentration was also examined by Student t test.
Fig 2 Intracellular calcium mobilization in Sf9 cells. (A, B) Sf9 cells were transfected with Gαq16- fused PpeRGPR-recombinant baculovirus (A) and non-transfected Sf9 cells were used as wild type controls (B). Expression of PpeRGPR in Sf9 cells was examined by immunostaining using an anti-Gαq16 antibody. Immunoreactivity was observed using a fluorescence microscope after incubation with an Alexa Fluor 488-conjugated secondary antibody. […] Scale bars represent 50 μm. […] Each dose-response curve was statistically evaluated by analysis of variance. […]

[2] = tested on: PpeRGPR in P. pectinifera ovarian follicle cells; assay: Competitive binding assay, 125I-PpeRGP versus unlabeled RGP, follicle cell homogenates; design: species or system Patiria pectinifera; conditions: 2 h at 20°C, four separate assays; for Effect of unlabeled peptide on 125I-PpeRGP binding (result in words): follicle cell homogenates (25 μg of protein), 125I-PpeRGP about 100,000 cpm, final concentration 1.1 pM, total volume 0.5 ml, four animals
Procedure: Follicle cells were homogenized using a Teflon homogenizer in 25 mM Tris-HCl (pH 7.4) containing 10 mM MgCl2. Protein concentrations were measured using a Bio-Rad protein assay kit (Bio-Rad Laboratories, Hercules, CA, USA).
The radioiodination of PpeRGP with Na^125I (carrier free; GE Healthcare, Buckinghamshire, UK) was carried out at room temperature in accordance with the modified lactoperoxidase method, as described previously. The specific activity of radioiodinated PpeRGP (^125I-PpeRGP) was estimated to be 150 μCi/μg.
The specificity of RGP binding was examined using whole homogenates of follicle cells. Preparations were adjusted to yield a protein concentration of 10 mg/ml with the homogenizing medium plus 0.1% (wt/vol) BSA, and stored at -80°C until use. The binding assay was performed using competition experiments between labeled PpeRGP and unlabeled PpeRGP or AamRGP, as described previously. Data were obtained from four separate assays using follicle cells from ovaries of four different animals.
Fig 3 Competitive inhibition curves of ^125I-PpeRGP binding to Patiria pectinifera ovarian follicle cells in the presence of unlabeled PpeRGP or AamRGP. P. pectinifera ovarian follicle cell homogenates (25 μg of protein) were incubated for 2 h at 20°C in assay buffer containing ^125I-PpeRGP (about 100,000 cpm; 2.087 pg/[…]; total volume 0.5 ml, final concentration 1.1 pM) in the presence of serially diluted unlabeled PpeRGP (●) or AamRGP (○). Specific binding was obtained by subtracting nonspecific binding from total binding. Data were obtained from four separate assays using follicle cells from ovaries of four different animals.

[3] = tested on: Patiria pectinifera ovarian follicle cells; assay: 1-MeAde production by follicle cells; type: cell-based; conditions: follicle cells (ten million in 1 ml ASW), 2 h at 20°C; 1-MeAde released into medium by biological assay; three independent samples
Procedure: as §2, §3

P. pectinifera ovaries = conditions: approximately; in vitro spawning; read-out: Median effective concentration of in vitro spawning; cited from earlier work
Source text: Since cDNA encoding the PpeRGPR was cloned from P. pectinifera follicle cells (Fig 1), PpeRGPR should be expressed on follicle cell surface. […] In contrast to PpeRGP, AamRGP had no effects on binding to P. pectinifera follicle cells (Fig 3), as well as 1-MeAde and cAMP production (Fig 4B) or calcium signals in PpeRGPR-expressing Sf9 cells (Fig 2C). […] Based on 3D structural models, P^A17 of PpeRGP and R^A18 of AamRGP are located near their respective B-cha ...

[4] = tested on: membrane preparation of ovarian follicle cells of P. pectinifera; conditions: cited from earlier work
[5] = tested on: males and females of P. pectinifera; conditions: injection of synthetic PpeRGP into males and females with fully-grown testes and ovaries; cited from earlier work
Source text: as §1

[6] = tested on: ovarian fragments of P. pectinifera; conditions: synthetic PpeRGP, within 30 min of incubation; cited from earlier work
Source text: as §1

[7] = tested on: Patiria pectinifera ovarian follicle cells; conditions: isolated follicle cells cultured with PpeRGP, cited from earlier work
Source text: However, the RGP receptor (RGPR) remains to be identified in s ...

[8] = Sf9 cells with Gαq16-fused PpeRGPR, three to seven independent samples

| Compound | Interval preceding the discharge of gametes after injection (result in words) (starfish) | Effect on cAMP production (result in words) [1] | Effect on calcium signaling (result in words) (PpeRGPR; [8]) | Effect of unlabeled peptide on 125I-PpeRGP binding (result in words) [2] | Effect on 1-MeAde production (result in words) [3] | EC50 (P. pectinifera ovaries) [nM] | Binding to follicle cell membrane preparation (result in words) [4] | Spawning behavior and spawning after injection (result in words) [5] | Induction of oocyte maturation and ovulation (result in words) [6] | 1-MeAde production in isolated follicle cells (result in words) ([7]; coinciding with cAMP increase) | cAMP production in isolated follicle cells (result in words) [7] | EC50 (PpeRGPR; Sf9 cells transfected with Gαq16-fused PpeRGPR baculovirus, 48 h, Fluo-8 AM 2.5 μM, FlexStation II, 490/514 nm, sigmoidal fit, three to seven independent samples, read-out: EC50, calcium signaling) [nM] | Concentration above which calcium signaling is significantly increased (PpeRGPR; Sf9 cells with Gαq16-fused PpeRGPR, Fluo-8) | Kd ([2]; Scatchard plot analysis, follicle cell homogenates, 125I-PpeRGP, read-out: Dissociation constant (Kd)) [nM] |
| --- | --- | --- | --- | --- | --- | --- | --- | --- | --- | --- | --- | --- | --- | --- |
| Cn1cnc2ncnc-2c1N [1-MeAde, 1-methyladenine] | almost equal to those found after injection of RGP |  |  |  |  |  |  |  |  |  |  |  |  |  |
| relaxin-like gonad-stimulating peptide of Asterias amurensis [AamRGP, reference compound] |  | no effects | no effect on calcium signaling | no effect on ^125I-PpeRGP binding | no effects |  |  |  |  |  |  |  |  |  |
| relaxin-like gonad-stimulating peptide of Patiria pectinifera [PpeRGP] |  |  | significantly increased calcium signaling at concentrations above 1 nM in a dose-dependent manner | decreased in a dose-dependent manner |  | 1 to 2 | binds specifically | spawning behavior and subsequent spawning were observed | induced oocyte maturation and ovulation | increase | dose-related increase | 11.1 | above 1 nM | ~0.67 |
